Values quoted from earlier work, collected in patent US20180066081A1, “SUBSTITUTED CYCLIC ETHER POLYMERS AND CONJUGATES AND USES THEREOF” (UNIVERSITY OF IOWA RESEARCH FOUNDATION, priority 2015, published 2018).

Conditions: chlorhexidine rinses (e.g., PERIDEX, chlorhexidine gluconate 0.12%); from package insert

active compound retained in the oral cavity following application: about 30%
Compound: [H]/N=C(\N/C(=N/[H])NCCCCCCNC(=N)NC(=N)Nc1ccc(Cl)cc1)Nc1ccc(Cl)cc1 [chlorhexidine]
